For this assay, the system named is H9 cells. The assay is described as follows: qHTS for survival of dissociated H9 cells (CellTiter-Glo, 24 hours after seeding). The format is cell-based, human. To be noted: for AC50: CellTiter-Glo 24 hours after seeding, read-out: AC50 (concentration at 50% efficacy). The text has this: FIG. 2 schematically illustrates qHTS procedure.
All the screed compounds were received pre-plated at the pre-determined concentrations. […] Curve classification is explained in Huang et al. “Chemical genomics profiling of environmental chemical modulation of human nuclear receptors” Environ. Health. Perspect.
In general terms: In qHTS, concentration-response curves come from the screen itself.

Setting [1] is: H9 cell survival normalized to 10 μM Y-27632 (taken to be 100%).
[2] abbreviates: H9 cell survival, normalized to 10 μM Y-27632.
[3] abbreviates: Homo sapiens, H9, 24 h, H9 cell survival normalized to 10 μM Y-27632 (taken to be 100%), read-out: Max (maximum activity value from all tested concentrations).
Setting [4] is: Homo sapiens, H9, 24 h, H9 cell survival.
Where [5] appears, read: Homo sapiens, H9, 24 h, H9 cell survival, normalized to 10 μM Y-27632, read-out: Efficacy (activity range between predicted activities at zero and infinite doses, Hill equation).

Where two headings read alike, the source gives them in different places.

For the molecule `Cl.O=c1[nH]c([C@@H]2CCCN2)nc2c1oc1ccc(Cl)cc12` [BMS-863233 (XL-413)], under setting [1], the “Max (maximum activity value from all tested concentrations)” value worked out at 22.03%. For the same molecule, the AC50 (H9 cell survival) amounted to 26.1 µM. The “Efficacy (activity range between predicted activities at zero and infinite doses, Hill equation)” value under setting [2] is 28.3.

Regarding `Cc1c(O)c(O)cc2c1CC=C1[C@@]2(C)CC[C@@]2(C)[C@@H]3C[C@](C)(C(=O)O)CC[C@]3(C)CC[C@]12C` [DIHYDROCELASTROL], the Emax by setting is: (Homo sapiens, H9, 24 h, read-out: Efficacy (activity range between predicted activities at zero and infinite doses, Hill equation)) 26.1%; (Homo sapiens, H9, 24 h, read-out: Max (maximum activity value from all tested concentrations)) 21.2%. For the same molecule, where the note is “Homo sapiens, H9 cell survival”, the AC50 turned out to be 14.7 µM.

On to `CC[C@@](C)(Nc1ccnc(-c2c[nH]c3ncccc23)n1)C(=O)NCC(F)(F)F` [Decernotinib], for which the Emax is 34% under setting [3] and 30.1% under setting [5]. Under setting [4], the AC50 was 2.93 µM.

With `O=C(NCc1ccccc1)c1csc(Nc2ccncn2)n1` [Thiazovivin], the “Max (maximum activity value from all tested concentrations)” value under setting [1] is 88.3%. The AC50 (H9 cell survival) was found to be 0.414 µM. The “Efficacy (activity range between predicted activities at zero and infinite doses, Hill equation)” value under setting [2] was 80.6.

As to `C=C(CO)C(=O)O[C@H]1CC(=C)[C@@H]2C[C@H](O)C(=C)[C@@H]2[C@H]2OC(=O)C(=C)[C@@H]21` [NCGC00168845-02], under setting [1], the “Max (maximum activity value from all tested concentrations)” value turned out to be 21.8%. For the same molecule, the AC50 (H9 cell survival) is 3.61 µM. For the same molecule, the “Efficacy (activity range between predicted activities at zero and infinite doses, Hill equation)” value under setting [2] is reported as 27.1.

Turning to `Cl.O=c1[nH]ccc2cc(OC3CCNCC3)ccc12` [SAR407899 (hydrochloride)], the “Max (maximum activity value from all tested concentrations)” value under setting [1] was determined as 116.3%. The AC50 (H9 cell survival) stood at 2.93 µM. Moreover, under setting [2], the “Efficacy (activity range between predicted activities at zero and infinite doses, Hill equation)” value is given as 112.

In the case of `Cl.Cl.Fc1ccccc1CNCc1ccc(-c2ccnc3[nH]ccc23)cc1` [OXA 06 dihydrochloride], the “Max (maximum activity value from all tested concentrations)” value under setting [1] is 108.2%. Moreover, the AC50 (H9 cell survival) was 0.736 µM. Under setting [2], the “Efficacy (activity range between predicted activities at zero and infinite doses, Hill equation)” value is 110.

On to `CCCCCCCCCCCCCC(=O)O[C@@H]1[C@@H](C)[C@@]2(O)[C@@H](C=C(CO)C[C@]3(O)C(=O)C(C)=C[C@@H]23)[C@@H]2C(C)(C)[C@]12OC(C)=O` [Phorbol 12-myristate 13-acetate], for which the “Max (maximum activity value from all tested concentrations)” value under setting [1] came to 48.49%. Further, the AC50 (H9 cell survival) is 0.21 µM. The “Efficacy (activity range between predicted activities at zero and infinite doses, Hill equation)” value under setting [2] is 36.8.

Turning to `CC(C)(C)c1nc2c3cc[nH]c(=O)c3c3cc(F)ccc3c2[nH]1` [Pyridone 6], under setting [1], the “Max (maximum activity value from all tested concentrations)” value is 28.9%. Also, the “Efficacy (activity range between predicted activities at zero and infinite doses, Hill equation)” value under setting [2] was 0.

On to `CC1(CCOC2OC(CO)C(O)C(O)C2O)CCC23OC2(C1)C(O)CC1C(C)(C(=O)O)CCCC13C` (stereo not drawn) [NCGC00380931-01], for which the “Max (maximum activity value from all tested concentrations)” value under setting [1] is on record as 24.96%. The AC50 (H9 cell survival) amounted to 11.4 µM. Besides, the “Efficacy (activity range between predicted activities at zero and infinite doses, Hill equation)” value under setting [2] is on record as 28.

Take `CC(C)CC(=O)OC1OC=C(CO[C@@H]2O[C@H](CO)[C@@H](O)[C@H](O)[C@H]2O)C2CC(O)C(O)(CO)C12` (stereo partly drawn) [NCGC00347879-02]: under setting [1], the “Max (maximum activity value from all tested concentrations)” value came out at 30.87%. Also, under setting [2], the “Efficacy (activity range between predicted activities at zero and infinite doses, Hill equation)” value is reported as 0.

Turning to `CC1CNCCN1S(=O)(=O)c1cccc2cnccc12.Cl.Cl` (stereo not drawn) [1-(5-Isoquinolinylsulfonyl)-2-methylpipenvine dihydrochloride], the “Max (maximum activity value from all tested concentrations)” value under setting [1] worked out at 85.52%. In addition, for the setting “H9 cell survival”, the AC50 came out at 4.61 µM. The “Efficacy (activity range between predicted activities at zero and infinite doses, Hill equation)” value under setting [2] was 92.2.

Take `CC(C)CCC(=O)CC1c2ccccc2C(=O)N1c1ccc2ccc(Cl)nc2n1` (single isomer, unassigned; (+)) [(+)-Pagoclone]: the “Max (maximum activity value from all tested concentrations)” value under setting [1] is listed as 22.94%. Moreover, the “Efficacy (activity range between predicted activities at zero and infinite doses, Hill equation)” value under setting [2] is given as 0.

In the case of `CC(C)(C)c1nc(-c2cccc(NS(=O)(=O)c3c(F)cccc3F)c2F)c(-c2ccnc(N)n2)s1` [Dabrafenib], the Emax runs as follows: under setting [3], 22%; under setting [5], 21.7%. Moreover, under setting [4], the AC50 came out at 14.8 µM.
